target: T1, human PTH1 receptor (Homo sapiens, UniProt Q03431); assay: In vitro cAMP signal activity in HKRK-B7 cells (LLC-PK1 cells overexpressing the human PTH1 receptor); type: cell-based; settings: HKRK-B7 cells; compound at 1×10^−3 M; […]; 0.1 µM
T1 sequence (Q03431 27-593): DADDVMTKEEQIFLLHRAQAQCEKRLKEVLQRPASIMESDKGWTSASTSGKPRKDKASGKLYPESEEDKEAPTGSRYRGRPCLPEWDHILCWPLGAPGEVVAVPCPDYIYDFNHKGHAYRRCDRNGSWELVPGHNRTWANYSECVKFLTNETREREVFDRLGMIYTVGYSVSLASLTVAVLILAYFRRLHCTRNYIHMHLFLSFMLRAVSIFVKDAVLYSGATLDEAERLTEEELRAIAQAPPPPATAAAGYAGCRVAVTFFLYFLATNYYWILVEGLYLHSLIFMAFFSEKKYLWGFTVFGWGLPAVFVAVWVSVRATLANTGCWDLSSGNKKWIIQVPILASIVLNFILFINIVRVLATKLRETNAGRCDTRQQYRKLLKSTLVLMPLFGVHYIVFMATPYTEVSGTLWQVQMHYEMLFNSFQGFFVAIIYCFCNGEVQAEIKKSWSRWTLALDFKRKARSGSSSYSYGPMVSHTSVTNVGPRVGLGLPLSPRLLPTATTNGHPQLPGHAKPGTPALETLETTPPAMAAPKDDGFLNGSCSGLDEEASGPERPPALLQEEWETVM

Structure (SMILES)	cAMP production activity (%)
O=C(Cn1ccc2c(/C=C/S(=O)(=O)N3CCC4(CC3)N=C(C3CCCCC3)NC4=O)cccc21)Nc1ccncc1 [Compound 736, 2-{4-[(E)-2-(2-Cyclohexyl-4-oxo-1,3,8-triaza-spiro[4.5]dec-1-ene-8-sulfonyl)-vinyl]-indol-1-yl}-N-pyridin-4-yl-acetamide]	16%

same assay, conditions: HKRK-B7 cells; compound at 1×10^−3 M; cAMP produced as percentage of that produced by hPTH(1-34) at 100 nM

Structure (SMILES)	cAMP production activity (%)
Cc1cc(C(=O)N2CCC(C)(O)CC2)cc(C)c1/C=C/S(=O)(=O)N1CCC2(CC1)N=C(c1ccc(F)c(OCCCF)c1)NC2=O [Compound 1215, 2-[4-fluoro-3-(3-fluoro-propoxy)-phenyl]-8-{(E)-2-[4-(4-hydroxy-4-methyl-piperidine-1-carbonyl)-2,6-dimethyl-phenyl}-ethenesulfonyl]-1,3,8-triaza-spiro[4.5]dec-1-en-4-one]	74%
Cc1cc(N(C)C(N)=O)cc(C)c1CC[S@TB3](=O)(=O)N1CCC2(CC1)N=C(C1CC(C(F)(F)F)CC(C(F)(F)F)C1)NC2=O [Compound 1138, 1-(4-{2-[2-((1R,3R,5S)-3,5-bis-trifluoromethyl-cyclohexyl)-4-oxo-1,3,8-triaza-spiro[4.5]dec-1-ene-8-sulfonyl]-ethyl}-3,5-dimethyl-phenyl)-1-methyl-urea]	77%
CC[C@H]1CC[C@H](C2=NC3(CCN(S(=O)(=O)/C=C/c4ccc(N5CC(=O)NC5=O)cc4C)CC3)C(=O)N2)CC1 [Compound 624, 1-(4-{(E)-2-[2-(4-Ethyl-cyclohexyl)-4-oxo-1,3,8-triaza-spiro[4.5]dec-1-ene-8-sulfonyl]-vinyl}-3-methyl-phenyl)-imidazolidine-2,4-dione]	36%
Cc1cc(C(=O)N(C)C)ccc1CCS(=O)(=O)N1CCC2(CC1)N=C(NCC1CCCCC1)NC2=O [Compound 1399, 4-{2-[2-(cyclohexylmethyl-amino)-4-oxo-1,3,8-triaza-spiro[4.5]dec-1-ene-8-sulfonyl]-ethyl}-3,N,N-trimethyl-benzamide]	20%
Cc1cc(OCCC(O)CO)ccc1/C=C/S(=O)(=O)N1CCC2(CC1)N=C(c1cccc(C(F)(F)F)c1)NC2=O (stereo not drawn) [Compound 210, 8-{(E)-2-[4-(3,4-Dihydroxy-butoxy)-2-methyl-phenyl]-ethenesulfonyl}-2-(3-trifluoromethyl-phenyl)-1,3,8-triaza-spiro[4.5]dec-1-en-4-one]	79%
Cc1cc(NS(=O)(=O)NCCCO)ccc1CCS(=O)(=O)N1CCC2(CC1)N=C(c1cccc(OC(F)(F)F)c1)NC2=O [Compound 875, N-(3-hydroxy-propyl)-N′-(3-methyl-4-{2-[4-oxo-2-(3-trifluoromethoxy-phenyl)-1,3,8-triaza-spiro[4.5]dec-1-ene-8-sulfonyl]-ethyl}-phenyl)-sulfamide]	65%
Cc1cc(OCCC(O)CO)ccc1/C=C/S(=O)(=O)N1CCC2(CC1)N=C(c1ccc3c(c1)OC(F)(F)O3)NC2=O (stereo not drawn) [Compound 1167, 2-(2,2-difluoro-benzo[1,3]dioxol-5-yl)-8-{(E)-2-[4-(3,4-dihydroxy-butoxy)-2-methyl-phenyl]-ethenesulfonyl}-1,3,8-triaza-spiro[4.5]dec-1-en-4-one]	115%
Cc1cc(C(=O)N(C)C)ccc1CCS(=O)(=O)N1CCC2(CC1)N=C(c1cc(F)cc(C(F)(F)F)c1)NC2=O [Compound 115, 4-{2-[2-(3-fluoro-5-trifluoromethyl-phenyl)-4-oxo-1,3,8-triaza-spiro[4.5]dec-1-ene-8-sulfonyl]-ethyl}-3,N,N-trimethyl-benzamide]	81%
Cc1cc(C(=O)N2CCNC(=O)C2)cc(C)c1/C=C/S(=O)(=O)N1CCC2(CC1)N=C(c1ccc(F)c(C(F)(F)F)c1)NC2=O [Compound 968, 8-{(E)-2-[2,6-Dimethyl-4-(3-oxo-piperazine-1-carbonyl)-phenyl]-ethenesulfonyl}-2-(4-fluoro-3-trifluoromethyl-phenyl)-1,3,8-triaza-spiro[4.5]dec-1-en-4-one]	69%
Cc1cc(NS(=O)(=O)N(C)C)ccc1/C=C/S(=O)(=O)N1CCC2(CC1)N=C(C1CCCCC1)NC2=O [Compound 568, N-{4-[(E)-2-(2-cyclohexyl-4-oxo-1,3,8-triaza-spiro[4.5]dec-1-ene-8-sulfonyl)-vinyl]-3-methyl-phenyl}-N′,N′-dimethyl-sulfamide]	39%
Cc1cc(N(C)C(N)=O)cc(C)c1CCS(=O)(=O)N1CCC2(CC1)N=C(CCCCCCCCCCCCCC(=O)O)NC2=O [Compound 1350, 14-(8-{2-[2,6-dimethyl-4-(1-methyl-ureido)-phenyl]-ethanesulfonyl}-4-oxo-1,3,8-triaza-spiro[4.5]dec-1-en-2-yl)-tetradecanoic acid]	22%
Cc1cc(C(=O)N2CCC(O)(CF)CC2)cc(C)c1/C=C/S(=O)(=O)N1CCC2(CC1)N=C(c1ccc(OCC(F)(F)F)c(Cl)c1)NC2=O [Compound 1246, 2-[3-chloro-4-(2,2,2-trifluoro-ethoxy)-phenyl]-8-{(E)-2-[4-(4-fluoromethyl-4-hydroxy-piperidine-1-carbonyl)-2,6-dimethyl-phenyl]-ethenesulfonyl}-1,3,8-triaza-spiro[4.5]dec-1-en-4-one]	85%
Cc1cc(N(CC(F)(F)F)C(N)=O)ccc1CCS(=O)(=O)N1CCC2(CC1)N=C(c1cccc(OC(F)(F)F)c1)NC2=O [Compound 877, 1-(3-methyl-4-{2-[4-oxo-2-(3-trifluoromethoxy-phenyl)-1,3,8-triaza-spiro[4.5]dec-1-ene-8-sulfonyl]-ethyl}-phenyl)-1-(2,2,2-trifluoro-ethyl)-urea]	35%
CNc1cc(C)c(CCS(=O)(=O)N2CCC3(CC2)N=C(C2CCC(=C(C)C)CC2)NC3=O)c(C)c1 (stereo not drawn) [Compound 1037, 8-[2-(2,6-Dimethyl-4-methylamino-phenyl)-ethanesulfonyl]-2-(4-isopropylidene-cyclohexyl)-1,3,8-triaza-spiro[4.5]dec-1-en-4-one]	87%
Cc1cc(C(=O)N2CCC(C)(O)CC2)cc(C)c1/C=C/S(=O)(=O)N1CCC2(CC1)N=C(c1ccc(F)c(OCCCC(F)(F)C(F)(F)F)c1)NC2=O [Compound 1092, 2-[4-Fluoro-3-(4,4,5,5,5-pentafluoro-pentyloxy)-phenyl]-8-{(E)-2-[4-(4-hydroxy-4-methyl-piperidine-1-carbonyl)-2,6-dimethyl-phenyl]-ethenesulfonyl}-1,3,8-triaza-spiro[4.5]dec-1-en-4-one]	89%
CCCC[C@H]1CC[C@H](C2=NC3(CCN(S(=O)(=O)/C=C/c4c(C)cc(N(CC5(C)COC5)C(C)=O)cc4C)CC3)C(=O)N2)CC1 [Compound 632, N-(4-{(E)-2-[2-(4-butyl-cyclohexyl)-4-oxo-1,3,8-triaza-spiro[4.5]dec-1-ene-8-sulfonyl]-vinyl}-3,5-dimethyl-phenyl)-N-(3-methyl-oxetan-3-ylmethyl)-acetamide]	51%
O=C1NC(c2ccc(Cl)cc2Cl)=NC12CCN(S(=O)(=O)CCc1cccc3ccccc13)CC2 [Compound 47, 2-(2,4-dichloro-phenyl)-8-(2-naphthalen-1-yl-ethanesulfonyl)-1,3,8-triaza-spiro[4.5]dec-1-en-4-one]	45%
CCC1CCC(C2=NC3(CCN(S(=O)(=O)CCc4ccc(C(=O)N5CCN(CCF)CC5)cc4C)CC3)C(=O)N2)CC1 (stereo not drawn) [Compound 975, 2-(4-Ethyl-cyclohexyl)-8-(2-{4-[4-(2-fluoro-ethyl)-piperazine-1-carbonyl]-2-methyl-phenyl}-ethanesulfonyl)-1,3,8-triaza-spiro[4.5]dec-1-en-4-one]	74%
Cc1cc(S(N)(=O)=O)ccc1CCS(=O)(=O)N1CCC2(CC1)N=C(c1cccc(C(F)(F)F)c1)NC2=O [Compound 291, 3-methyl-4-{2-[4-oxo-2-(3-trifluoromethyl-phenyl)-1,3,8-triaza-spiro[4.5]dec-1-ene-8-sulfonyl]-ethyl}-benzenesulfonamide]	66%
Cc1cc(C(=O)N(C)C)ccc1CCS(=O)(=O)N1CCC2(CC1)N=C(N(C)c1ccccc1)NC2=O [Compound 1397, 3,N,N-trimethyl-4-{2-[2-(methyl-phenyl-amino)-4-oxo-1,3,8-triaza-spiro[4.5]dec-1-ene-8-sulfonyl]-ethyl}-benzamide]	24%
Cc1cc(C(=O)N2CCC(C)(O)CC2)cc(C)c1/C=C/S(=O)(=O)N1CCC2(CC1)N=C(c1ccc(Cl)c(OC(C)(C)C(F)(F)F)c1)NC2=O [Compound 1210, 2-[4-chloro-3-(2,2,2-trifluoro-1,1-dimethyl-ethoxy)-phenyl]-8-{(E)-2-[4-(4-hydroxy-4-methyl-piperidine-1-carbonyl)-2,6-dimethyl-phenyl]-ethenesulfonyl}-1,3,8-triaza-spiro[4.5]dec-1-en-4-one]	86%
Cc1cc(N(C)C(N)=O)cc(C)c1CCS(=O)(=O)N1CCC2(CC1)N=C(C1CCC(C)CC1)NC2=O (stereo not drawn) [Compound 470, 1-(3,5-Dimethyl-4-{2-[2-(4-methyl-cyclohexyl)-4-oxo-1,3,8-triaza-spiro[4.5]dec-1-ene-8-sulfonyl]-ethyl}-phenyl)-1-methyl-urea]	90%
Cc1cc2cc(C)c1CCS(=O)(=O)N1CCC3(CC1)N=C(CCCCCCCCCCCCCC(=O)N2C)NC3=O [Compound 1445]	62%

Source: patent publication US9169254B2, “Spiroimidazolone derivative” (Chugai Seiyaku Kabushiki Kaisha, priority 2009, dated 2015)
